Experimental data taken from the NIST ThermoML archive (doi:10.1021/je030101n).

Assay: xn = mol fraction of the nth substance listed
Settings: 101.3 kPa, Liquid; for viscosity: Capillary tube (Ostwald / Ubbelohde) method; for mass density: Pycnometric method

Nc1ccccc1 [aniline] + CN(C)C=O
Settings | mass density, 298.15 K [kg/m3] | mass density, 303.15 K [kg/m3] | mass density, 308.15 K [kg/m3] | mass density, 313.15 K [kg/m3] | viscosity, 298.15 K [mPa·s] | viscosity, 303.15 K [mPa·s] | viscosity, 308.15 K [mPa·s] | viscosity, 313.15 K [mPa·s]
x2 = 0 | 1017.2 | 1012.9 | 1008.6 | 1004.2 | 3.69 | 3.19 | 2.8 | 2.42
x2 = 0.1293 | 1010.3 | 1006 | 1001.7 | 997.3 | 3.296 | 2.864 | 2.521 | 2.186
x2 = 0.2582 | 1005.8 | 1001.5 | 997.2 | 992.9 | 2.908 | 2.54 | 2.242 | 1.952
x2 = 0.3548 | 1000.5 | 996.2 | 991.9 | 987.6 | 2.621 | 2.298 | 2.034 | 1.779
x2 = 0.4642 | 993.9 | 989.5 | 985.1 | 980.7 | 2.3 | 2.025 | 1.8 | 1.583
x2 = 0.5537 | 987.6 | 983.2 | 978.9 | 974.5 | 2.04 | 1.803 | 1.611 | 1.423
x2 = 0.6614 | 978.8 | 974.3 | 969.8 | 965.3 | 1.731 | 1.543 | 1.387 | 1.237
x2 = 0.7558 | 969.2 | 964.8 | 960.4 | 955.9 | 1.466 | 1.319 | 1.194 | 1.079
x2 = 0.8302 | 961.4 | 957 | 952.6 | 948.1 | 1.257 | 1.145 | 1.044 | 0.954
x2 = 0.9123 | 952.3 | 947.7 | 943.1 | 938.4 | 1.038 | 0.955 | 0.88 | 0.819

N#Cc1ccccc1 [benzonitrile] + CN(C)C=O
Settings | mass density, 298.15 K [kg/m3] | mass density, 303.15 K [kg/m3] | mass density, 308.15 K [kg/m3] | mass density, 313.15 K [kg/m3] | viscosity, 298.15 K [mPa·s] | viscosity, 303.15 K [mPa·s] | viscosity, 308.15 K [mPa·s] | viscosity, 313.15 K [mPa·s]
x2 = 0 | 1000.9 | 996.4 | 991.9 | 987.2 | 1.171 | 1.126 | 1.068 | 1.001
x2 = 0.1335 | 995.4 | 990.9 | 986.4 | 981.7 | 1.17 | 1.124 | 1.064 | 0.99
x2 = 0.1981 | 992.7 | 988.2 | 983.7 | 979 | 1.169 | 1.119 | 1.056 | 0.985
x2 = 0.3191 | 987.4 | 982.9 | 978.4 | 973.8 | 1.152 | 1.097 | 1.033 | 0.963
x2 = 0.3873 | 984.3 | 979.8 | 975.3 | 970.6 | 1.134 | 1.078 | 1.015 | 0.948
x2 = 0.4907 | 979 | 974.5 | 970 | 965.3 | 1.099 | 1.042 | 0.98 | 0.918
x2 = 0.6061 | 972.2 | 967.7 | 963.2 | 958.5 | 1.049 | 0.992 | 0.932 | 0.875
x2 = 0.7176 | 965.2 | 960.6 | 956 | 951.2 | 0.992 | 0.936 | 0.879 | 0.825
x2 = 0.7997 | 959.6 | 955 | 950.4 | 945.6 | 0.943 | 0.889 | 0.834 | 0.781
x2 = 0.9209 | 950.6 | 946 | 941.4 | 936.5 | 0.862 | 0.811 | 0.761 | 0.715
